Columns and labels:
Type in all cases: in vivo
Lolium perenne (LOLPE) [1] = assay: Test Example 1 post-emergence herbicidal activity; conditions: 360 h, rate 125 g/ha, evaluated 15 days later, read-out: Post-emergence activity LOLPE (100=total damage to plant; 0=no damage to plant)
How it was run: (§1)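 Pots sown in standard soil were sprayed 1 day (pre-emergence) or 10 days (post-emergence) after sowing with an aqueous spray from an acetone/Emulsogen EL/N-methylpyrrolidone-based formulation. Visual damage was scored 20 days (pre) or 15 days (post) later in the greenhouse, 0 = none to 100 = total.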

Avena fatua (AVEFA) [2] = assay: Test Example 1 post-emergence herbicidal activity; conditions: 360 h, rate 125 g/ha, evaluated 15 days later, read-out: Post-emergence activity AVEFA (100=total damage to plant; 0=no damage to plant)
How it was run: as §1

[3] = system: Alopecurus myosuroides (ALOMY); assay: Test Example 1 post-emergence herbicidal activity; conditions: 360 h, rate 125 g/ha, evaluated 15 days later, read-out: Post-emergence activity ALOMY (100=total damage to plant; 0=no damage to plant)
How it was run: as §1

Setaria faberi (SETFA) [4] = assay: Test Example 1 post-emergence herbicidal activity; conditions: 360 h, rate 125 g/ha, evaluated 15 days later, read-out: Post-emergence activity SETFA (100=total damage to plant; 0=no damage to plant)
How it was run: as §1

[5] = system: Echinochloa crus-galli (ECHCG); assay: Test Example 1 post-emergence herbicidal activity; conditions: 360 h, rate 125 g/ha, evaluated 15 days later, read-out: Post-emergence activity ECHCG (100=total damage to plant; 0=no damage to plant)
How it was run: as §1

[6] = system: Digitaria sanguinalis (DIGSA); assay: Test Example 1 post-emergence herbicidal activity; conditions: 360 h, rate 125 g/ha, evaluated 15 days later, read-out: Post-emergence activity DIGSA (100=total damage to plant; 0=no damage to plant)
How it was run: as §1

Lolium perenne (LOLPE) [7] = assay: Test Example 1 pre-emergence herbicidal activity; conditions: Lolium perenne, 480 h, rate 250 g/ha, evaluated 20 days later, read-out: Pre-emergence activity LOLPE (100=total damage to plant; 0=no damage to plant)
How it was run: as §1

Avena fatua (AVEFA) [8] = assay: Test Example 1 pre-emergence herbicidal activity; conditions: Avena fatua, 480 h, rate 250 g/ha, evaluated 20 days later, read-out: Pre-emergence activity AVEFA (100=total damage to plant; 0=no damage to plant)
How it was run: as §1

[9] = system: Alopecurus myosuroides (ALOMY); assay: Test Example 1 pre-emergence herbicidal activity; conditions: Alopecurus myosuroides, 480 h, rate 250 g/ha, evaluated 20 days later, read-out: Pre-emergence activity ALOMY (100=total damage to plant; 0=no damage to plant)
How it was run: as §1

Setaria faberi (SETFA) [10] = assay: Test Example 1 pre-emergence herbicidal activity; conditions: Setaria faberi, 480 h, rate 250 g/ha, evaluated 20 days later, read-out: Pre-emergence activity SETFA (100=total damage to plant; 0=no damage to plant)
How it was run: as §1

[11] = system: Echinochloa crus-galli (ECHCG); assay: Test Example 1 pre-emergence herbicidal activity; conditions: Echinochloa crus-galli, 480 h, rate 250 g/ha, evaluated 20 days later, read-out: Pre-emergence activity ECHCG (100=total damage to plant; 0=no damage to plant)
How it was run: as §1

[12] = system: Digitaria sanguinalis (DIGSA); assay: Test Example 1 pre-emergence herbicidal activity; conditions: Digitaria sanguinalis, 480 h, rate 250 g/ha, evaluated 20 days later, read-out: Pre-emergence activity DIGSA (100=total damage to plant; 0=no damage to plant)
How it was run: as §1

SMILES	pest or weed control at 125 g/ha (Lolium perenne (LOLPE) [1]) [%]	pest or weed control at 125 g/ha (Avena fatua (AVEFA) [2]) [%]	pest or weed control at 125 g/ha [3] [%]	pest or weed control at 125 g/ha (Setaria faberi (SETFA) [4]) [%]	pest or weed control at 125 g/ha [5] [%]	pest or weed control at 125 g/ha [6] [%]	pest or weed control at 250 g/ha (Lolium perenne (LOLPE) [7]) [%]	pest or weed control at 250 g/ha (Avena fatua (AVEFA) [8]) [%]	pest or weed control at 250 g/ha [9] [%]	pest or weed control at 250 g/ha (Setaria faberi (SETFA) [10]) [%]	pest or weed control at 250 g/ha [11] [%]	pest or weed control at 250 g/ha [12] [%]
Cc1cc(C)c(C2=C(O)[C@@H]3[C@@H]4O[C@@H](C[C@H]4c4cc(C(F)(F)F)nc(C(F)(F)F)c4)[C@@H]3C2=O)c(C)c1 (racemic) [Example T199]	60	100	100	80	100	100	60	50	0	60	80	100
CCc1nc2ccccc2nc1[C@@H]1C[C@@H]2O[C@H]1[C@H]1C(O)=C(c3c(C)cc(C)cc3C)C(=O)[C@H]12 [Example T194]	20	0	30	0	80	70	20	20	0	50	50	70
Cc1cc(C)c(C2=C(O)[C@@H]3[C@@H]4O[C@@H](C[C@H]4/C=C/c4ccccc4)[C@@H]3C2=O)c(C)c1 [Example T98]	40	20	70	70	80	60	20	20	30	70	30	0
CCC(C)C(=O)OC1=C(c2c(C)cc(C)cc2C)C(=O)[C@@H]2[C@H]1[C@H]1CC[C@@H]2O1 (stereo partly drawn) [Example P9]	100	90	100	80	90	80	100	100	100	80	80	90
Cc1cc(C)c(C2=C(O)[C@@H]3[C@@H]4O[C@@H](C[C@H]4c4ccc(C(F)(F)F)cc4)[C@@H]3C2=O)c(C)c1 [Example T92]	50	100	100	100	100	100	30	60	20	70	90	70
CCc1cc(C)cc(CC)c1C1=C(O)[C@H]2[C@@H](C1=O)[C@@H]1C=C[C@@]2(CO)O1 (racemic) [Example T13]	90	90	80	100	100	50	90	80	80	100	100	100
CCCNC(=O)OC[C@]12CC[C@H](O1)[C@@H]1C(=O)C(c3c(CC)cc(C)cc3CC)=C(O)[C@@H]12 [Example T21]	70	70	90	60	100	30	80	30	90	70	80	10
Cc1cc(C)c(C2=C(O)[C@H]3[C@@H](C2=O)[C@]2(C)C=C[C@@]3(C)O2)c(C)c1 [Example T34]	30	30	40	80	80	80	60	30	70	80	40	60
CCOCOC[C@]12CC[C@H](O1)[C@@H]1C(=O)C(c3c(CC)cc(C)cc3CC)=C(O)[C@@H]12 [Example T19]	90	100	100	100	100	90	100	90	100	100	100	90
CCc1cc(C)cc(CC)c1C1=C(O)[C@H]2[C@@H](C1=O)[C@@H]1CC[C@@]2(C)O1 [Example T8]	100	100	100	100	100	100	100	90	100	100	100	100
CCc1cc(C)cc(CC)c1C1=C(OC(=O)C2CC2)[C@H]2[C@@H](C1=O)[C@@H]1CC[C@H]2O1 (racemic) [Example P21]	100	100	90	100	100	80	100	100	100	100	100	100
CCc1cc(C)cc(CC)c1C1=C(OC(=O)CC(C)C)[C@H]2[C@@H](C1=O)[C@@H]1CC[C@H]2O1 [Example P19]	100	100	100	100	100	100	100	100	100	100	100	100
CCc1cc(C)cc(CC)c1C1=C(O)[C@@H]2[C@@H]3O[C@@H](C[C@H]3c3cccc(C(C)=O)c3)[C@@H]2C1=O (racemic) [Example T174]	40	70	70	50	80	70	30	30	30	0	0	40
